Source: PubChem BioAssay (NCI)
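Five compound concentrations were applied to cells in 96-well plates for 48 hours; endpoints were derived by simple linear interpolation of the resulting dose-response curve. Abbreviation: GI50, concentration required for 50% inhibition of growth. TGI is the concentration that stops growth completely.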

Experiments:
Assay in all cases: inhibition of tumour cell growth, NCI panel, 48 h
COLO 205 colon = system: COLO 205 colon
RPMI-8226 leukemia = system: RPMI-8226 leukemia
OVCAR-3 ovarian = system: OVCAR-3 ovarian
NCI/ADR-RES ovarian = system: NCI/ADR-RES ovarian
SNB-75 CNS = system: SNB-75 CNS
RXF 393 renal = system: RXF 393 renal
CAKI-1 renal = system: CAKI-1 renal
PC-3 prostate = system: PC-3 prostate
OVCAR-8 ovarian = system: OVCAR-8 ovarian
T-47D breast = system: T-47D breast
SK-MEL-5 melanoma = system: SK-MEL-5 melanoma
SK-MEL-2 melanoma = system: SK-MEL-2 melanoma
U251 CNS = system: U251 CNS
NCI-H226 lung = system: NCI-H226 lung
SW-620 colon = system: SW-620 colon
BT-549 breast = system: BT-549 breast
HOP-62 NSCLC = system: HOP-62 NSCLC
KM12 colon = system: KM12 colon
HS 578T breast = system: HS 578T breast
SF-268 CNS = system: SF-268 CNS
MDA-MB-231 breast = system: MDA-MB-231 breast
DU-145 prostate = system: DU-145 prostate
HCT-116 colon = system: HCT-116 colon
786-0 renal = system: 786-0 renal
LOX IMVI melanoma = system: LOX IMVI melanoma
OVCAR-5 ovarian = system: OVCAR-5 ovarian
SF-295 CNS = system: SF-295 CNS
K-562 leukemia = system: K-562 leukemia
UACC-257 melanoma = system: UACC-257 melanoma
UO-31 renal = system: UO-31 renal
NCI-H522 lung = system: NCI-H522 lung
ACHN renal = system: ACHN renal
NCI-H460 lung = system: NCI-H460 lung
OVCAR-4 ovarian = system: OVCAR-4 ovarian
M14 melanoma = system: M14 melanoma
HCT-15 colon = system: HCT-15 colon
SNB-19 CNS = system: SNB-19 CNS
MCF7 breast = system: MCF7 breast
MOLT-4 leukemia = system: MOLT-4 leukemia
CCRF-CEM leukemia = system: CCRF-CEM leukemia
IGROV1 ovarian = system: IGROV1 ovarian
HCC-2998 colon = system: HCC-2998 colon
EKVX NSCLC = system: EKVX NSCLC
SR leukemia = system: SR leukemia
SF-539 CNS = system: SF-539 CNS
SK-OV-3 ovarian = system: SK-OV-3 ovarian
UACC-62 melanoma = system: UACC-62 melanoma
MALME-3M melanoma = system: MALME-3M melanoma
HOP-92 NSCLC = system: HOP-92 NSCLC
A498 renal = system: A498 renal
MDA-MB-435 = system: MDA-MB-435
A549 NSCLC = system: A549 NSCLC
SK-MEL-28 melanoma = system: SK-MEL-28 melanoma
NCI-H23 lung = system: NCI-H23 lung
TK-10 renal = system: TK-10 renal
HT29 colon = system: HT29 colon
SN12C renal = system: SN12C renal

## Cc1ccc(C(=O)Nc2ccccc2C(=O)N/N=C(\c2ccccc2)c2ccccn2)cc1
COLO 205 colon
  GI50: 334 nM
  TGI: > 100000 nM
RPMI-8226 leukemia
  GI50: 1130 nM
  TGI: > 100000 nM
OVCAR-3 ovarian
  GI50: 211 nM
  TGI: > 100000 nM
NCI/ADR-RES ovarian
  GI50: 200 nM
  TGI: > 100000 nM
SNB-75 CNS
  GI50: 1180 nM
  TGI: > 39200 nM
RXF 393 renal
  GI50: 1530 nM
  TGI: > 100000 nM
CAKI-1 renal
  GI50: 324 nM
  TGI: > 100000 nM
PC-3 prostate
  GI50: 1100 nM
  TGI: > 100000 nM
OVCAR-8 ovarian
  GI50: 377 nM
  TGI: > 100000 nM
T-47D breast
  GI50: 493 nM
  TGI: > 100000 nM
SK-MEL-5 melanoma
  GI50: 271 nM
  TGI: 1150 nM
SK-MEL-2 melanoma
  TGI: > 100000 nM
U251 CNS
  GI50: 485 nM
  TGI: > 100000 nM
NCI-H226 lung
  GI50: 895 nM
  TGI: > 100000 nM
SW-620 colon
  GI50: 603 nM
  TGI: > 100000 nM
BT-549 breast
  GI50: 517 nM
  TGI: > 100000 nM
HOP-62 NSCLC
  GI50: 270 nM
  TGI: > 100000 nM
KM12 colon
  GI50: 388 nM
  TGI: > 100000 nM
HS 578T breast
  GI50: 9130 nM
  TGI: > 100000 nM
SF-268 CNS
  GI50: 274 nM
  TGI: > 100000 nM
MDA-MB-231 breast
  GI50: 517 nM
  TGI: > 100000 nM
DU-145 prostate
  GI50: 434 nM
  TGI: > 100000 nM
HCT-116 colon
  GI50: 348 nM
  TGI: > 100000 nM
786-0 renal
  GI50: 362 nM
  TGI: > 100000 nM
LOX IMVI melanoma
  GI50: 302 nM
  TGI: > 100000 nM
OVCAR-5 ovarian
  GI50: 607 nM
  TGI: > 100000 nM
SF-295 CNS
  GI50: 377 nM
  TGI: > 100000 nM
K-562 leukemia
  GI50: 855 nM
  TGI: > 100000 nM
UACC-257 melanoma
  GI50: 999 nM
  TGI: > 100000 nM
UO-31 renal
  GI50: 107 nM
  TGI: 2660 nM
NCI-H522 lung
  GI50: 582 nM
  TGI: > 100000 nM
ACHN renal
  GI50: 166 nM
  TGI: > 25900 nM
NCI-H460 lung
  GI50: 211 nM
  TGI: > 100000 nM
OVCAR-4 ovarian
  GI50: 157 nM
  TGI: > 100000 nM
M14 melanoma
  GI50: 272 nM
  TGI: 3260 nM
HCT-15 colon
  GI50: 60 nM
  TGI: > 100000 nM
SNB-19 CNS
  GI50: 554 nM
  TGI: > 100000 nM
MCF7 breast
  GI50: 359 nM
  TGI: > 100000 nM
MOLT-4 leukemia
  GI50: 374 nM
  TGI: > 100000 nM
CCRF-CEM leukemia
  GI50: 167 nM
  TGI: > 100000 nM
IGROV1 ovarian
  GI50: 177 nM
  TGI: > 100000 nM
HCC-2998 colon
  GI50: 381 nM
  TGI: > 100000 nM
EKVX NSCLC
  GI50: 207 nM
  TGI: > 100000 nM
SR leukemia
  GI50: 208 nM
  TGI: > 100000 nM
SF-539 CNS
  GI50: 309 nM
  TGI: 6950 nM
SK-OV-3 ovarian
  GI50: 478 nM
  TGI: > 100000 nM
UACC-62 melanoma
  GI50: 360 nM
  TGI: 6700 nM
MALME-3M melanoma
  GI50: 752 nM
  TGI: > 100000 nM
HOP-92 NSCLC
  GI50: 6270 nM
  TGI: > 100000 nM
A498 renal
  GI50: 630 nM
MDA-MB-435
  GI50: 534 nM
  TGI: > 100000 nM
A549 NSCLC
  GI50: 703 nM
  TGI: > 100000 nM
SK-MEL-28 melanoma
  GI50: 597 nM
  TGI: > 100000 nM
NCI-H23 lung
  GI50: 723 nM
  TGI: > 100000 nM
TK-10 renal
  GI50: 3580 nM
  TGI: > 100000 nM
HT29 colon
  GI50: 250 nM
  TGI: > 100000 nM
SN12C renal
  GI50: 760 nM
  TGI: > 100000 nM
